Experimental data published in paper PMC9298182, “De novo design of type II topoisomerase inhibitors as potential antimicrobial agents targeting a novel binding region” (RSC Medicinal Chemistry, 2022).
Where two headings read alike, the source gives them in different places. Marks after values point to notes of the source that are not given here.

What was measured:
E. coli DNA gyrase = E. coli DNA gyrase (Escherichia coli, UniProt P0AES4+P0AES6); assay: E. coli DNA gyrase supercoiling inhibition assay (gel-based); type: biochemical; conditions: for IC50: supercoiling assay, mean of 2 or 3 experiments, semi-quantitative
E. coli topoisomerase IV [1] = target: T1, E. coli topoisomerase IV (Escherichia coli, UniProt P0AFI2+P20083); assay: biochemical; type: biochemical
E. coli K12 MG1655 = assay: MIC, broth microdilution; type: cell-based; conditions: Escherichia coli, MG1655, read-out: E. coli K12 MG1655 MIC
S. aureus NCIMB 50080 = assay: MIC, broth microdilution; type: cell-based
E. coli K12 MG1655 S83L = assay: MIC, broth microdilution, fluoroquinolone mutant strain; type: cell-based; conditions: Escherichia coli, MG1655, read-out: E. coli K12 MG1655 S83L MIC
E. coli topoisomerase IV [2] = target: T1, E. coli topoisomerase IV; parameters: method as in PMID 28507124; conditions: read-out: E. coli topo IV IC50; cited from earlier work
E. coli = test system: E. coli; parameters: method as in PMID 28507124; conditions: different E. coli strain, printed in column E. coli K12 MG1655; cited from earlier work
S. aureus = conditions: different S. aureus strain, printed in column S. aureus NCIMB 50080; cited from earlier work
[3] = Staphylococcus aureus, NCIMB50080; read-out: S. aureus NCIMB 50080 MIC

Structure (SMILES): CCOc1cccc(-c2cccc(C(=O)N[C@@H](CN)c3ccccc3)c2)c1 [Compound 4]
- IC50 (E. coli DNA gyrase): 20 µM

Structure (SMILES): Cl.NC[C@H](NC(=O)c1cccc(-c2ccccc2C(F)(F)F)c1)c1ccccc1 [Compound 5]
- IC50 (E. coli DNA gyrase): 21 µM
- IC50 (E. coli topoisomerase IV [1]): > 100 µM
- MIC (E. coli K12 MG1655): 32 µg/mL
- MIC (S. aureus NCIMB 50080; [3]): 16 µg/mL
- MIC (E. coli K12 MG1655 S83L): 32 µg/mL

Structure (SMILES): COC(=O)c1ccccc1-c1cccc(C(=O)N[C@@H](CN)c2ccccc2)c1.Cl [Compound 14]
- IC50 (E. coli DNA gyrase): 41 µM
- melting point: 145 to 147 °C

Structure (SMILES): COc1ccccc1-c1cccc(C(=O)NC(CN)c2ccc(O)cc2)c1 (stereo not drawn) [Compound 32]
- IC50 (E. coli DNA gyrase): 45 µM

Structure (SMILES): CC(=O)c1cccc(-c2cccc(C(=O)N[C@@H](CN)c3ccccc3)c2)c1.Cl [Compound 12]
- IC50 (E. coli DNA gyrase): 42 µM
- melting point: ~ 238 °C (dec.)

Structure (SMILES): CCOc1cc(C)cc(-c2cc(C(=O)N[C@@H](CN)c3ccccc3)ccc2C)c1 [Compound 26]
- IC50 (E. coli DNA gyrase): 56 µM

Structure (SMILES): NC[C@H](NC(=O)c1cccc(-c2cccc(Cl)c2)c1)c1ccccc1 [Compound 10]
- IC50 (E. coli DNA gyrase): 39 µM

Structure (SMILES): Cc1cccc(C(=O)N[C@@H](CN)c2ccccc2)c1 [Compound 22]
- IC50 (E. coli DNA gyrase): > 100 µM

Structure (SMILES): CCOc1cccc(-c2cccc(C(=O)N[C@H](CN)c3ccccc3)c2)c1.Cl [Compound 30]
- fold drop in gyrase activity of (S)-enantiomer vs. (R)-enantiomer (E. coli DNA gyrase; 30 vs. 4): 9 fold
- IC50 (E. coli DNA gyrase): 180 µM

Structure (SMILES): CCOc1cccc(-c2cc(C(=O)N[C@@H](CN)c3ccccc3)ccc2C)c1 [Compound 25]
- IC50 (E. coli DNA gyrase): 63 µM

Structure (SMILES): COC(=O)c1cccc(-c2cccc(C(=O)N[C@@H](CN)c3ccccc3)c2)c1.Cl [Compound 13]
- IC50 (E. coli DNA gyrase): 24 µM
- melting point: 212 to 215 °C

Structure (SMILES): Cc1ccc(C(=O)N[C@@H](CN)c2ccccc2)cc1.Cl [Compound 23]
- gyrase inhibition judged visually from gel (E. coli DNA gyrase; at 100 µM, Fig. S2): some inhibition
- IC50 (E. coli DNA gyrase): > 100 µM

Structure (SMILES): Cl.NC[C@H](NC(=O)c1cccc(-c2ccccc2Cl)c1)c1ccccc1 [Compound 9]
- IC50 (E. coli DNA gyrase): 35 µM
- melting point: 160.5 to 163 °C

Structure (SMILES): NC[C@H](NC(=O)c1cncc(-c2ccccc2Cl)c1)c1ccccc1 [Compound 27]
- IC50 (E. coli DNA gyrase): 35 µM

Structure (SMILES): COc1ccccc1-c1cc(C(=O)N[C@@H](CN)c2ccccc2)ccc1C [Compound 24]
- IC50 (E. coli DNA gyrase): 153 µM

Structure (SMILES): Cl.NCC(NC(=O)c1cccc(-c2cccs2)c1)c1ccc(O)cc1 (stereo not drawn) [Compound 1]
- IC50 (E. coli topoisomerase IV [2]): > 540 µM
- E. coli MIC (E. coli): 8 ^a μg mL^−1
- S. aureus MIC (S. aureus): 8 ^a μg mL^−1

Structure (SMILES): CCOc1cccc(-c2cccc(C(=O)NC(CN)c3ccc(O)cc3)c2)c1F (stereo not drawn) [Compound 35]
- IC50 (E. coli DNA gyrase): > 200 µM

Structure (SMILES): COc1ccccc1-c1cccc(C(=O)NC(CN)c2cccc(O)c2)c1.Cl (stereo not drawn) [Compound 31]
- IC50 (E. coli DNA gyrase): 41 µM
- IC50 (E. coli topoisomerase IV [1]): > 100 µM
- MIC (E. coli K12 MG1655): > 128 µg/mL
- MIC (S. aureus NCIMB 50080; [3]): 128 µg/mL
- MIC (E. coli K12 MG1655 S83L): > 128 µg/mL

Structure (SMILES): CCOc1cc(-c2cccc(C(=O)N[C@@H](CN)c3ccccc3)c2)ccc1F.Cl [Compound 7]
- IC50 (E. coli DNA gyrase): 17 µM
- IC50 (E. coli topoisomerase IV [1]): 64 µM
- fold more potent against gyrase than topo IV (E. coli topoisomerase IV [1]; E. coli gyrase vs. E. coli topo IV): ~4 fold
- MIC (E. coli K12 MG1655): 32 µg/mL
- MIC (S. aureus NCIMB 50080; [3]): 16 µg/mL
- MIC (E. coli K12 MG1655 S83L): 32 µg/mL
- melting point: 219 to 221 °C

Structure (SMILES): NC[C@H](NC(=O)c1cccc(-c2ccccc2)c1)c1ccccc1 [Compound 2]
- IC50 (E. coli DNA gyrase): 60 µM

Structure (SMILES): COc1ccccc1-c1cccc(C(=O)N[C@H](CN)c2ccccc2)c1 [Compound 29]
- IC50 (E. coli DNA gyrase): 36 µM

Structure (SMILES): CCOc1cccc(-c2cccc(C(=O)NC(CN)c3cccc(O)c3)c2)c1 (stereo not drawn) [Compound 33]
- IC50 (E. coli DNA gyrase): 41 µM

Structure (SMILES): CCOc1cccc(-c2cccc(C(=O)N[C@@H](CN)c3ccccc3)c2)c1F.Cl [Compound 6, N-[(1R)-2-amino-1-phenylethyl]-3'-ethoxy-2'-fluoro-[1,1'-biphenyl]-3-carboxamide hydrochloride]
- fold increase in binding affinity against gyrase vs. unsubstituted 2 (E. coli DNA gyrase; relative to compound 2): 5 fold
- IC50 (E. coli DNA gyrase): 12 µM
- IC50 (E. coli topoisomerase IV [1]): > 100 µM
- MIC (E. coli K12 MG1655): 64 µg/mL
- MIC (S. aureus NCIMB 50080; [3]): 32 µg/mL
- MIC (E. coli K12 MG1655 S83L): 64 µg/mL

Structure (SMILES): Cl.NC[C@@H](NC(=O)c1cccc(-c2ccccc2)c1)c1ccccc1 [Compound 28]
- IC50 (E. coli DNA gyrase): 76 µM
- melting point: 205 to 207 °C

Structure (SMILES): CCOc1cccc(-c2cccc(C(=O)NC(CN)c3cccc(O)c3)c2)c1F (stereo not drawn) [Compound 34]
- IC50 (E. coli DNA gyrase): 62 µM

Structure (SMILES): NC[C@H](NC(=O)c1cccc(-c2cccc(O)c2)c1)c1ccccc1 [Compound 8]
- IC50 (E. coli DNA gyrase): 46 µM

Structure (SMILES): Cl.NC[C@H](NC(=O)c1cccc(-c2cccc([N+](=O)[O-])c2)c1)c1ccccc1 [Compound 11]
- IC50 (E. coli DNA gyrase): 73 µM
- IC50 (E. coli topoisomerase IV [1]): 94 µM
- MIC (E. coli K12 MG1655): > 128 µg/mL
- MIC (S. aureus NCIMB 50080; Staphylococcus aureus, NCIMB50080, read-out: S. aureus NCIMB 50080 MIC): > 128 µg/mL
- MIC (E. coli K12 MG1655 S83L): > 128 µg/mL

Structure (SMILES): COc1ccccc1-c1cccc(C(=O)N[C@@H](CN)c2ccccc2)c1 [Compound 3]
- IC50 (E. coli DNA gyrase): 20 µM

Structure (SMILES): Cc1ccccc1C(=O)N[C@@H](CN)c1ccccc1 [Compound 21]
- IC50 (E. coli DNA gyrase): > 100 µM

Structure (SMILES): Cl.NC[C@H](NC(=O)c1cccc(Br)c1)c1ccccc1 [Compound 15]
- fold drop in gyrase activity compared to 2 (E. coli DNA gyrase; relative to compound 2): at least 3 fold
- IC50 (E. coli DNA gyrase): > 200 µM
